Data as given in patent US20210040074A1 (The United States of America,as represented by the …, priority 2018, published 2021).

Experiments:
[1] = target: T1, D5 (Homo sapiens, UniProt P21918); test: D5 cAMP assay; conditions: fold change of dopamine EC50, 50 μM compound
Procedure: (§2) cAMP Accumulation Assay. Assays were performed on D1R-HEK293 (Codex Biosolutions, Gaithersburg, Md.) cells stably expressing the human D1R. HEK293 cell lines were maintained in Dulbecco's modified Eagles medium, supplemented with 10% fetal bovine serum, 100 U/ml penicillin, 100 μg/ml streptomycin, 1 mM sodium pyruvate, and 250 μg/ml G418 and incubated at 37° C., 5% CO2, and 90% humidity. […] After 18-24 h incubation at 37° C., 5% CO2, and 90% humidity, the media was removed and replaced with 5 μL/well PBS. […] Briefly, antibody and working solution was added to each well according to the manufacturer's protocol, and incubated in the dark at room temperature for 60 min. Following incubation, enzyme acceptor reagent was added to the plates and luminescence (RLU) was measured (FDSS μCell, Hamamatsu Photonics K. K., Bridgewater, N.J.) following a 3 h incubation in the dark at room temperature.

[2] = target: T1, D5; test: D5R β-arrestin recruitment assay (DiscoverX PathHunter, CHO cells); format: cell-based; design: host or cells: CHO-K1; conditions: for D5 Beta-Arrestin: DA + 50 μM PAM, Fold Change EC50: fold change of dopamine EC50, 50 μM compound
Procedure: (§1) β-arrestin Recruitment Assay. […] Following 18-24 h of incubation, the cells were treated with the indicated concentrations of compound in PBS buffer containing 0.2 mM sodium metabisulfite, and incubated at 37° C. for 90 min. DiscoverX reagent was added to cells according to the manufacturer's protocol, followed by a 60 min incubation in the dark at room temperature. Luminescence was measured on a Hamamatsu FDSS μ-Cell reader (Hamamatsu, Bridgewater, N.J.) and data were collected using the FDSS software.
Each PAM was also examined in the absence of DA as an agonist, as indicated.

[3] = target: T2, human D1R (Homo sapiens, UniProt P21728); test: D1 cAMP accumulation assay (D1R-HEK293 cells, DiscoverX HitHunter); conditions: fold change of dopamine EC50, 50 μM compound
T2 sequence (P21728 whole entry): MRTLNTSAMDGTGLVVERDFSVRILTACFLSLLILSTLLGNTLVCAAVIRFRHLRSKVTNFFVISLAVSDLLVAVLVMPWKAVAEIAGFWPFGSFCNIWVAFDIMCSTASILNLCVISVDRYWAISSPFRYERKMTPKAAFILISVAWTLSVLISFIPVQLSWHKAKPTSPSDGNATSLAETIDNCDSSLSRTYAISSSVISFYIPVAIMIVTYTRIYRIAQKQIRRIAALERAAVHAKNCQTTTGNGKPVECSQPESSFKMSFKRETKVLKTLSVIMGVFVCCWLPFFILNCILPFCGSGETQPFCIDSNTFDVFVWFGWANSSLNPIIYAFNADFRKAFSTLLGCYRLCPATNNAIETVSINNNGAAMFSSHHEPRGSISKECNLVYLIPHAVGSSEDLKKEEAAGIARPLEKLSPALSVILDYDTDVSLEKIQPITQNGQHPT
Procedure: as §2

[4] = target: T2, human D1R; test: D1R β-arrestin recruitment assay (DiscoverX PathHunter, CHO-K1 cells); conditions: fold change of dopamine EC50, 50 μM compound
Source text: The DiscoverX PathHunter β-Arrestin Assay was used to measure β-arrestin reuitment to the D1R following the manufacturer's instructions.

[5] = target: T3, D4R (Homo sapiens, UniProt P21917); test: D4 β-arrestin recruitment assay (DiscoverX PathHunter, CHO-K1 cells); format: cell-based; design: inferred from the same PathHunter system described for D1R and D5R; host or cells: CHO-K1; conditions: fold change of dopamine EC50, 50 μM compound
T3 sequence (P21917 1-419): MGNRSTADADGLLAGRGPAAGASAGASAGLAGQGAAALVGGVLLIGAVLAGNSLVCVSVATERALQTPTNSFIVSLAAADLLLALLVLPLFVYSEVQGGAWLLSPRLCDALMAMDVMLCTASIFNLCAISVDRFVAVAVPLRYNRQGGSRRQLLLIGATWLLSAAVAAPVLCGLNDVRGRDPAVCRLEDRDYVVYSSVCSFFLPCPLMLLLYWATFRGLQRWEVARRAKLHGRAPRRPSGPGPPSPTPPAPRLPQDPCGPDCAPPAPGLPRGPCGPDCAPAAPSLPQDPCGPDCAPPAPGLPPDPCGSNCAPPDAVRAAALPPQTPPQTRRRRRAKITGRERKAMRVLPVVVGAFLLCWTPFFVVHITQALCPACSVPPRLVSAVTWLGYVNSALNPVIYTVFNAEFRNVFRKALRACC
Procedure: as §1, with “Assay. Agonist-mediated recruitment of β-arrestin-2 to all five DARs was determined using the DiscoveRx PathHunter complementation assay (DiscoverX Inc, Fremont, Calif.), as previously described (Free, et. al., 2014; Conroy, et. al., 2015).” for “Assay.”

[6] = target: D2R (Homo sapiens, UniProt P14416); test: D2R β-arrestin BRET assay; conditions: dopamine alone; mean ± SEM
Sequence of D2R (P14416 whole entry): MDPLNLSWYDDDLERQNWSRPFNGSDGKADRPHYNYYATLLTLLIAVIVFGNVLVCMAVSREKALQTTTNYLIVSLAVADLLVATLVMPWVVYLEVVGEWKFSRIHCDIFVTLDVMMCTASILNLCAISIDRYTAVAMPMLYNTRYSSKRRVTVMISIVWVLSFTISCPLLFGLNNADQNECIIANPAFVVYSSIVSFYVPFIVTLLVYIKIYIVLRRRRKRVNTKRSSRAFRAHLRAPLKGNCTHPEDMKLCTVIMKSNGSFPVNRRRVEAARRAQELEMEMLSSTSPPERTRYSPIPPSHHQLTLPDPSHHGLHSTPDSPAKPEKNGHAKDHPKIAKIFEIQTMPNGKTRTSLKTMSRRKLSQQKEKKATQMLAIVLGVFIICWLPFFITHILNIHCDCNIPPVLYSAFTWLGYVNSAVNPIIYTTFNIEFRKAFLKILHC
Procedure: (§3) Bioluminescence Resonance Energy Transfer (BRET) Assays. Experiments were performed in HEK239 cells transiently transfected with D1R-RLuc8 and β-arrestin-mVenus (β-arrestin BRET) or Gαs-mVenus+β1+γ2 (Gs BRET) using the polyethylenimine (PEI) transfection method. […] Appropriate amounts of DNA were combined with 3 μg/μL PEI per μg of DNA in nonsupplemented DMEM and incubated with the cells overnight. Experiments were performed 48 hours post-transfection. On experiment day, cells were collected and resuspended in Dulbecco's Phosphate-Buffered Saline (DPBS) with Ca2+ and Mg2++0.2 mM sodium metabisulfite+5.5 mM glucose.

[7] = target: β2AR (Homo sapiens, UniProt P07550); test: β2AR β-arrestin BRET assay; conditions: epinephrine alone; mean ± SEM
Sequence of β2AR (P07550 whole entry): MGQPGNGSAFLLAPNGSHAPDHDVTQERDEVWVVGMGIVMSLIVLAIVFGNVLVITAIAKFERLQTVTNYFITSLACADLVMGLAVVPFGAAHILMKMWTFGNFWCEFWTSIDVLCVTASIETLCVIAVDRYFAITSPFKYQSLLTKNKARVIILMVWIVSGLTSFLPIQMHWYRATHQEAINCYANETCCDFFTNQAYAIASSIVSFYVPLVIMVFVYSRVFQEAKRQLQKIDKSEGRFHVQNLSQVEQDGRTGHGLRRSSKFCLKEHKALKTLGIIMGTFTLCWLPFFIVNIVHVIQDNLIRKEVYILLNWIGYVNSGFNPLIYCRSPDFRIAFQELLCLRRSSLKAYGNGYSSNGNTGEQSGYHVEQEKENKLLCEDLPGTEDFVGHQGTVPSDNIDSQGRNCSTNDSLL
Procedure: as §3

T1 sequence (P21918 whole entry): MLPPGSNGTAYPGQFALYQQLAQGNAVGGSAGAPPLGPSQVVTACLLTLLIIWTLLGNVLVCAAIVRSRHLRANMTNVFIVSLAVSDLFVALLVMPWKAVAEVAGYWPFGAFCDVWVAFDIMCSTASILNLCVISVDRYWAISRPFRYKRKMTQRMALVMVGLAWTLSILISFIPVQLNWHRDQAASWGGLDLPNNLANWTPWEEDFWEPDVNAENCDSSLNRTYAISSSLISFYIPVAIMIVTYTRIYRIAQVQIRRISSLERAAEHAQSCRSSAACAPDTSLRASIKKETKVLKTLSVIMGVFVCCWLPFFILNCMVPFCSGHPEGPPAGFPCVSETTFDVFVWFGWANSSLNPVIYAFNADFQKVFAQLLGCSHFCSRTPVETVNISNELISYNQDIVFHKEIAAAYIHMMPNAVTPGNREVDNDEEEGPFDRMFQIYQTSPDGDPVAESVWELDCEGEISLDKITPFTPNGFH

| Compound | D5 cAMP: DA + 50 μM PAM, Fold Change EC50 [1] | D5 Beta-Arrestin: DA + 50 μM PAM, Fold Change EC50 [2] | D1 cAMP: DA + 50 μM PAM, Fold Chg EC50 [3] | D1 Beta-Arrestin: DA + 50 μM PAM, Fold Chg EC50 [4] | D4 Beta-Arrestin: DA + 50 μM PAM, Fold Change EC50 [5] | D2R Agonist Emax (% Ctrl) [6] | PAM activity at the D5 receptor ([2]; 50 μM compound) | fold change of dopamine EC50 for β-arrestin recruitment to D5R ([2]; 50 μM compound) | β2AR Agonist Emax (% Ctrl) [7] |
| --- | --- | --- | --- | --- | --- | --- | --- | --- | --- |
| CC1CCc2c(sc(NC(=O)c3cccnc3)c2C(N)=O)C1 (stereo not drawn) [Compound 35] | 0.76 | 1.06 | 1.79 | 0.97 | 1.07 | – | – | – | – |
| NCCc1ccc(O)c(O)c1 [Dopamine, dopamine, reference compound] | – | – | – | – | – | 100 ± 12.48 % Ctrl | – | – | – |
| CC(C)(C)C1CCc2c(sc(NC(=O)c3cncc(Br)c3)c2C(N)=O)C1 (stereo not drawn) [Compound 29] | 0.66 | 1.68 | 1.30 | 1.05 | 1.20 | – | – | – | – |
| CC1CCc2c(sc(NC(=O)c3ccc4ccccc4n3)c2C(N)=O)C1 (stereo not drawn) [Compound 31] | 0.45 | 0.83 | 1.20 | 1.35 | 1.34 | – | – | – | – |
| COc1ccc(-n2c(CC3CCCCC3)nc3c(c(=O)c4ccccc4n3C)c2=O)cc1 [Compound 16] | 0.67 | 0.73 | 0.34 | 0.45 | 1.45 | – | – | – | – |
| CNC[C@H](O)c1ccc(O)c(O)c1 [Epinephrine, epinephrine, reference compound] | – | – | – | – | – | – | – | – | 99.9 ± 1.18 % Ctrl |
| CC(C)(C)C1CCc2c(sc(NC(=O)c3cccnc3)c2C(N)=O)C1 (stereo not drawn) [Compound 38] | – | 0.78 | 2.29 | 10.35 | 2.26 | – | – | – | – |
| CC(C)(C)C1CCc2c(sc(NC(=O)c3ccccn3)c2C(N)=O)C1 (stereo not drawn) [Compound 30] | 0.60 | 0.48 | 1.31 | 1.05 | 0.43 | – | – | – | – |
| CC1CCc2c(sc(NC(=O)c3ccccn3)c2C(N)=O)C1 (stereo not drawn) [Compound 37] | 1.64 | 0.47 | 1.61 | 1.05 | 1.06 | – | – | – | – |
| NC(=O)c1c(NC(=O)c2cccnc2)sc2c1CCC(c1ccccc1)C2 (stereo not drawn) [Compound 40] | – | 0.48 | 0.7 | 1.97 | 0.68 | – | – | – | – |
| CCOC(=O)c1c(NC(=O)c2cccnc2)sc2c1CCC(C(C)(C)C)C2 (stereo not drawn) [Compound 39] | – | 0.65 | 1.04 | 3.01 | 2.03 | – | – | – | – |
| CC1CCc2c(sc(NC(=O)c3ccncc3)c2C(N)=O)C1 (stereo not drawn) [Compound 33] | 1.57 | 1.86 | 1.53 | 0.97 | 0.81 | – | – | – | – |
| Cn1c2ccccc2c(=O)c2c(=O)n(-c3cccc(Cl)c3)c(CC3CCCCC3)nc21 [Compound 22] | 0.73 | 1.40 | – | – | 1.67 | – | – | – | – |
| Cn1c2ccccc2c(=O)c2c(=O)n(-c3ccccc3)c(C3CC3)nc21 [Compound 23] | 0.57 | 2.58 | – | – | 1.32 | – | – | – | – |

Second part, led by results:

| D5 cAMP: DA + 50 μM PAM, Fold Change EC50 [1] | D5 Beta-Arrestin: DA + 50 μM PAM, Fold Change EC50 [2] | D1 cAMP: DA + 50 μM PAM, Fold Chg EC50 [3] | D1 Beta-Arrestin: DA + 50 μM PAM, Fold Chg EC50 [4] | D4 Beta-Arrestin: DA + 50 μM PAM, Fold Change EC50 [5] | D2R Agonist Emax (% Ctrl) [6] | PAM activity at the D5 receptor ([2]; 50 μM compound) | fold change of dopamine EC50 for β-arrestin recruitment to D5R ([2]; 50 μM compound) | Compound | β2AR Agonist Emax (% Ctrl) [7] |
| --- | --- | --- | --- | --- | --- | --- | --- | --- | --- |
| 1.25 | 0.92 | 1.28 | 0.77 | 0.73 | – | – | – | CC(C)(C)C1CCc2c(sc(NC(=O)c3ccc4ccccc4n3)c2C(N)=O)C1 (stereo not drawn) [Compound 32] | – |
| 2.23 | 1.32 | – | – | 1.06 | – | none of these analogs have PAM activity | 1.3 fold | Cc1ccc(-n2c(CC(C)C)nc3c(c(=O)c4ccccc4n3C)c2=O)cc1 [Compound 5] | – |
| 2.22 | 4.56 | – | – | 0.62 | – | – | – | CC(C)Cc1nc2c(c(=O)c3ccccc3n2C)c(=O)n1-c1ccccc1 [Compound 21] | – |
| 1.26 | 4.16 | – | – | 1.26 | – | – | – | Cn1c2ccccc2c(=O)c2c(=O)n(-c3ccccc3)c(C3CCCC3)nc21 [Compound 24] | – |
| 1.45 | 1.28 | 1.30 | 0.61 | 0.96 | – | – | – | CN1CCc2c(sc(NC(=O)c3ccncc3)c2C#N)C1 [Compound 34] | – |
| 0.86 | 0.26 | 2.50 | 0.83 | 1.19 | – | – | – | NC(=O)c1c(NC(=O)c2ccccn2)sc2c1CCCC2 [Compound 36] | – |
